{
  "source": "patent US8921414B2",
  "about": "“Spiroketals” (EcoBiotics Ltd, priority 2005, dated 2014)",
  "key": {"Trichophyton rubrum": {"tested_on": "Trichophyton rubrum", "assay": "MycoTOX (Tr) antifungal bioassay", "assay_type": "cell-based", "method": "MycoTOX (alternatively referred to herein as Tr) is a non-chromogenic bioassay used to detect activity against filamentous fungal pathogens of plants and animals. The bioassay features a solid phase agar base into which the test compound has been incorporated. As the growth patterns of filamentous fungi are readily apparent on the agar surface the extent of mycelial growth, sporulation (if relevant to the species under investigation) and colour changes with maturation are measured.\nMycoTOX, involves a fungus (spore suspension or mycelial fragments) applied to the surface of an agar matrix containing the test chemical and allowed to grow for a period of up to a week (depending on species). The assay was monitored at two discrete times to identify key development phases in the life cycle (for example mycelial growth and extent of sporulation) and the active wells noted. The monitoring times were dependent on the fungal species under investigation.\nThe MycoTOX assays were carried out using Trichophyton rubrum."}, "several cell lines": {"tested_on": "several cell lines", "assay": "Morphological and cell cycle effects (flow cytometry)", "assay_type": "cell-based", "details": "24 hour treatment, 1 μg/mL", "text": "This tends to rule out targets such as PKC (prototype compound PMA), DNA damage (prototype cisplatin), kinases (prototype staurosporine), mitochondria or the plasma membrane (cell lysis).\nThis was not accompanied, however, by the typical rounded morphology of cells treated with tubulin ligands."}},
  "data": [
    {"smiles": "CCCCCCCCCCCCCC(O)CC1CC(O)CC2(CC3OC(=O)C=CC3O2)O1", "note": "(stereo not drawn) [EBI-23]", "values": [
      {"measurement": "Tr Titre", "setting": "Trichophyton rubrum", "result": 0},
      {"measurement": "DNA fragments (apoptosis)", "setting": "several cell lines", "result": "No DNA fragments were detected"},
      {"measurement": "cell cycle effect by flow cytometry", "setting": "several cell lines", "result": "variable degree of G2/M arrest"}
    ]}
  ]
}
